Laboratory results: US20250283040A1, “Methods to Expand a T Regulatory Cell Master Cell Bank” (The Trustees of the University of Pennsylvania, priority 2010, published 2025)
“And” between values parts separate entries of the source, which are not always exact repeats. Equal entries are not always repeated.

How the values were obtained:
Assay type in all cases: cell-based, human
nTreg cultures = assay: Intracellular cytokine staining after PMA/Ionomycin
Method: Fresh or frozen nTreg were cultured in supplemented X-Vivo 15 for 4 hours±PMA ([…]) and Ionomycin (1 μg/ml) in the presence of Brefeldin A (100 ng/ml) (all Sigma). Frozen/thawed samples were cultured for 1 hour at 37° C. prior to re-stimulation. Cells were then harvested and stained for CD4, 25, Foxp3 and cytokine (IL-2, IL-4, IL-17, and IFNγ) or Granzyme B using the standard Foxp3 intracellular staining kit.

PB nTreg [1] = assay: Cell size and viability of nTreg cultures by ViCell; settings: sort-purified nTregs stimulated with KT64/86 cells; Rapamycin 109 nM
Method: (§1) Where indicated, Rapamycin (Rapammune, Wyeth-Ayerst) at 109 nM was added on day 0 and with subsequent media supplementation. Cell size and viability were determined by ViCell (Beckman Coulter).

PB nTreg [2] = assay: Ex vivo expansion of PB nTreg cultures (fold expansion); settings: sort-purified nTregs, first stimulation with KT64/86 cells; Rapamycin 109 nM
Method: Experiments were designed to expand Tregs isolated from adult peripheral blood. Tregs were isolated by a two step procedure in which CD4 cells were first enriched by depleting CD8, −14, and −19+ cells with GMP-grade mAb coated microbeads, followed by positive selection of CD25++ cells using GMP-grade anti-CD25 microbeads (either 75μl/2×10^8 cells, Miltenyi). Treg were subsequently expanded in vitro by repeated stimulation with CD3/28 beads or KT64/86 loaded with anti-CD3 antibody. In addition, the expansion scheme involved expanding Tregs in the presence of Rapamycin (109 nM) and restimulation based upon cell size.
For all experiments, non-mobilized peripheral blood Leukapheresis products were collected from normal adult volunteers using FDA approved/cleared apheresis instruments. Written informed consent was obtained from all subjects. nTreg were purified using GMP magnetic beads or by sorting. […]
as §1

[3] = sort-purified nTreg re-stimulated with KT64/86

SMILES: CO[C@H]1C[C@@H]2CC[C@@H](C)[C@@](O)(O2)C(=O)C(=O)N2CCCC[C@H]2C(=O)O[C@H]([C@H](C)C[C@@H]2CC[C@@H](O)[C@H](OC)C2)CC(=O)[C@H](C)/C=C(\C)[C@@H](O)[C@@H](OC)C(=O)[C@H](C)C[C@H](C)/C=C/C=C/C=C/1C [Rapamycin]
- % of PMA/ionomycin stimulated cells secreting IL-2, with Rapamycin (nTreg cultures; [3]): ≤ 3%
- % of cells secreting IFNγ, with Rapamycin (nTreg cultures; [3]): ≤ 2%
- % IL-4+ cells, start of the increase with successive re-stimulations (nTreg cultures; with Rapamycin): 8±2%
- % IL-4+ cells after the last (fourth) re-stimulation (nTreg cultures; with Rapamycin, Foxp3+ and −): 58±17% and > 50%
- Peak cell size with Rapamycin (PB nTreg [1]): 9.9 µm
- Expansion with Rapamycin (PB nTreg [2]): 55 fold
